Assay results: patent publication US8658661B2, “Oxadiazole inhibitors of leukotriene production” (Boehringer Ingelheim International GmbH, priority 2010, dated 2014)

Columns and labels:
[1] = biological target: T1, recombinant human FLAP protein (Homo sapiens, UniProt P20292); assay: FLAP binding assay (SPA, displacement of [125I]L-691,831); conditions: membranes of sf9 cells expressing recombinant human FLAP; [125I]L-691,831 probe; read-out: FLAP binding IC50
T1 construct: made in house; host or cells: Sf9 insect cells (100,000×g membrane pellet used)
T1 sequence (P20292 1-161): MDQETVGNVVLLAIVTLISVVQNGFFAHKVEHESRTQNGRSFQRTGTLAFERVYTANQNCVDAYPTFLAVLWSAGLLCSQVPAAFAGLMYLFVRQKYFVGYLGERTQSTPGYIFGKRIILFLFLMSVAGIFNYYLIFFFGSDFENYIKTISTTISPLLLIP
In short: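 Membranes from sf9 cells expressing human FLAP in pH 7.5 Tris buffer (MgCl2, EDTA, PMSF). Non-specific binding defined with 10 μM cold L-691,831.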

[2] = test system: synthesis of LTB4 in human whole blood; assay: Human whole blood assay (inhibition of LTB4 synthesis, calcimycin stimulated); assay type: cell-based; conditions: heparinized human whole blood, calcimycin 20 μM, plasma LTB4
In short: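 Steps: compound plus heparinized human whole blood, 15 min at 37° C; add calcimycin to 20 μM final; incubate another 30 min at 37° C; centrifuge at low speed and collect plasma; measure LTB4 with a homogeneous time-resolved fluorescence immunoassay.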

Structure (SMILES)	IC50 [1] [µM]	IC50 [2] [µM]
CC(c1ccc(-c2ccc(N)nc2)cc1)(c1noc(N2CCC(O)CC2)n1)C1CC1 (stereo not shown) [Example 248, 1-(3-{1-[4-(6-Amino-pyridin-3-yl)-phenyl]-1-cyclopropyl-ethyl}-[1,2,4]oxadiazol-5-yl)-piperidin-4-ol]	0.01	0.08
CC(c1ccc(-c2cnc(N)nc2)cc1)(c1noc(N2CCN(CCO)CC2)n1)C1CC1 (stereo not shown) [Example 252, 2-[4-(3-{1-[4-(2-Amino-pyrimidin-5-yl)-phenyl]-1-cyclopropyl-ethyl}-[1,2,4]oxadiazol-5-yl)-piperazin-1-yl]-ethanol]	0.015	0.22
Cn1cc(-c2nc(C(C)(c3ccc(-c4cnc5[nH]ccc5c4)cc3)C3CC3)no2)cn1 (stereo not shown) [Example 253, 5-(4-{1-Cyclopropyl-1-[5-(1-methyl-1H-pyrazol-4-yl)-[1,2,4]oxadiazol-3-yl]-ethyl}-phenyl)-1H-pyrrolo[2,3-b]pyridine]	0.0038	0.12
CN(C)C(=O)Cn1cc(-c2nc([C@@](C)(c3ccc(-c4cnc5c(c4)OCCN5)cc3)C3CC3)no2)cn1 [Example 254, 2-[4-(3-{(R)-1-Cyclopropyl-1-[4-(3,4-dihydro-2H-pyrido[3,2-b][1,4]oxazin-7-yl)-phenyl]-ethyl}-[1,2,4]oxadiazol-5-yl)-pyrazol-1-yl]-N,N-dimethyl-acetamide]	0.0028	0.21
CN(C)C(=O)Cn1cc(-c2nc([C@](C)(c3ccc(-c4cnc5c(c4)OCCN5)cc3)C3CC3)no2)cn1 [Example 255, 2-[4-(3-{(S)-1-Cyclopropyl-1-[4-(3,4-dihydro-2H-pyrido[3,2-b][1,4]oxazin-7-yl)-phenyl]-ethyl}-[1,2,4]oxadiazol-5-yl)-pyrazol-1-yl]-N,N-dimethyl-acetamide]	0.015	1.8
Cn1cc(-c2nc(C(C)(c3ccc(-c4cnc5c(c4)CCN5)cc3)C3CC3)no2)cn1 (stereo not shown) [Example 256, 5-(4-{1-Cyclopropyl-1-[5-(1-methyl-1H-pyrazol-4-yl)-[1,2,4]oxadiazol-3-yl]-ethyl}-phenyl)-2,3-dihydro-1H-pyrrolo[2,3-b]pyridine]	0.0045	0.051

Continued, values first:

IC50 [1] [µM]	IC50 [2] [µM]	Structure (SMILES)
0.37	> 5	CCNc1ncc(-c2ccc(C(C)(c3noc(-c4cnn(CC(=O)N(C)C)c4)n3)C3CC3)cc2)cn1 (stereo not shown) [Example 249, 2-[4-(3-{1-Cyclopropyl-1-[4-(2-ethylamino-pyrimidin-5-yl)-phenyl]-ethyl}-[1,2,4]oxadiazol-5-yl)-pyrazol-1-yl]-N,N-dimethyl-acetamide]
0.47	> 5	CN(C)C(=O)Cn1cc(-c2nc(C(C)(c3ccc(-c4cnc(NC5CC5)nc4)cc3)C3CC3)no2)cn1 (stereo not shown) [Example 250, 2-[4-(3-{1-Cyclopropyl-1-[4-(2-cyclopropylamino-pyrimidin-5-yl)-phenyl]-ethyl}[1,2,4]oxadiazol-5-yl)-pyrazol-1-yl]-N,N-dimethyl-acetamide]
0.0091	0.13	CNc1ccc(-c2ccc(C(C)(c3noc(-c4cnn(CC(=O)N(C)C)c4)n3)C3CC3)cc2)cn1 (stereo not shown) [Example 251, 2-[4-(3-{1-Cyclopropyl-1-[4-(6-methylamino-pyridin-3-yl)-phenyl]-ethyl}-[1,2,4]oxadiazol-5-yl)-pyrazol-1-yl]-N,N-dimethyl-acetamide]
0.0073	0.15	Cc1nc(N)ncc1-c1ccc([C@](C)(c2noc(-c3cnn(CC(=O)N(C)C)c3)n2)C2CC2)cc1 [Example 257, 2-[4-(3-{(R)-1-[4-(2-Amino-4-methyl-pyrimidin-5-yl)-phenyl]-1-cyclopropyl-ethyl}-[1,2,4]oxadiazol-5-yl)-pyrazol-1-yl]-N,N-dimethyl-acetamide]
0.43	2.3	Cc1nc(N)ncc1-c1ccc([C@@](C)(c2noc(-c3cnn(CC(=O)N(C)C)c3)n2)C2CC2)cc1 [Example 258, 2-[4-(3-{(S)-1-[4-(2-Amino-4-methyl-pyrimidin-5-yl)-phenyl]-1-cyclopropyl-ethyl}-[1,2,4]oxadiazol-5-yl)-pyrazol-1-yl]-N,N-dimethyl-acetamide]
